# Assay results: patent publication US20160340656A1, “PEPTIDES DERIVED FROM GSE 24.2 FOR TREATING DISEASES CAUSED BY OXIDATIVE STRESS AND DAMAGE TO DNA” (CONSEJO SUPERIOR DE INVESTIGACIONES CIENTÍFICAS (CSIC), priority 2013, published 2016)
# B1: GFINLDKPSNPSSHEVVAWIRRILRVEKTGHSGTLDPKVTGCLIVCIERATRLVKKKEKKKSK (peptide, listed as Homo sapiens)
# chain: GFINLDKPSNPSSHEVVAWIRRILRVEKTGHSGTLDPKVTGCLIVCIERATRLVKKKEKKKSK
# modifications: GSE24.2NLS2-3
# notes: GSE24.2 with NLS2 in the 3′ position
# Experiments:
# HeLa cells = test: Internalisation of fluorescein-labelled peptides, confocal fluorescence microscopy; type: cell-based
# Procedure: (§1) FIG. 21. Transfection of peptides GSE4 and GSE4NLS1 in HeLa cells. Peptides GSE4 and GSE4NLS1 (SEQ ID No. 7) labelled with fluorescein and obtained by chemical synthesis were transfected into HeLa cells using the Proteojuice reagent and viewed in a confocal fluorescence microscope at 9, 24 and 48 hours after transfection.
# as §1, with “22. Internalisation” for “21. Transfection”, “added to the culture medium of” for “transfected into”, “cells” for “cells using the Proteojuice reagent”
# Given the ability of sequence NLS1 to contribute to the activity of GSE24.2, a synthetic peptide into which this sequence was placed in the 3′ region of peptide GSE4 was constructed as this was the peptide for which the greatest telomerase activation was obtained. The peptides obtained by chemical synthesis were labelled with fluorescein to facilitate their visualisation in a fluorescence microscope. Two experiments were performed in parallel, in one the peptides were transfected using Proteojuice reagent and in the other they were added directly to the culture medium. […] An important difference observed was that when the peptides were added directly to the culture medium, the peptide entered into a higher number of cells than when Proteojuice was used. The reagent provided greater effectiveness for internalisation but into a small number of cells.
# [1] = test system: promoter of c-myc in 293T cells; test: c-myc promoter luciferase reporter activity; type: cell-based; settings: 24 hours, relative to GSE24.2
# Procedure: FIG. 20. Activity of constructions GSE24.2NLS1-3 and GSE24.2NLS2-3 on the c-myc promoter. The expression vectors for the constructions GSE24.2, GSE24.2N LS1-3 and GSE24.2NLS2-3 were transfected (using lipofectamine) into 293T cells together with the reporter gene of the promoter of c-myc, pXP1, and 24 hours later the luciferase activity was measured using a commercial kit. The values are expressed as relative activity, considering 1 as the value of luciferase with the empty expression vector pCDNA3myc.
# With the aim of evaluating biological activity of the constructions containing the signals NLS1-3 and N LS2-3, they were transfected into 293T cells together with the reporter gene of the promoter of c-myc and the luciferase activity activated by both constructions GSE24.2NLS1-3 and GSE24.2NLS2-3 was evaluated in relation to GSE24.2.
# [2] = test system: AT2078 cells of patients with ataxia telangiectasia; test: Damage to DNA in AT2078 cells: histone H2AX Ser139 foci after expression of GSE4 or SGSE4; type: cell-based, human; settings: 200 cells
# Procedure: FIG. 14. Determination of damage to DNA in AT cells after transfecting peptides GSE4 and SGSE4: AT2078 AT cells were infected with a lentiviral vector expressing GSE4, SGSE4 or a GFP empty vector and 24 hours later were fixed for processing and hybridised with an antibody against phosphorylated histone H2AX (Ser139). Control C-1787 cells were used as the negative control. Next they were hybridised with a fluorescein-labelled antibody and were stained with DAPI to locate the nuclei.
# As the peptide denominated GSE4 was the smallest sized of the peptides with ability to inhibit damage to DNA, we studied if another peptide with a similar sequence localised in the sequence of peptide GSE24.2 had the same activity or if that activity was specific to GSE4. Peptide SGSE4 (SEQ ID No. 15) is similar to GSE4 in sequence (amino acids LDPK/LDKP that constitute consensus sequences for pseudouridine synthases) and size and is found in the TRUBII domain of dyskerin. Cell lines AT2078 of patients with ataxia telangiectasia were used for this test. Cell line C-1787 was used as the control cell line. The cells were infected with the bicistronic lentiviral vector pCMV-GFP-GSE4, SGSE4 or GFP. After 48 hours of infection the cells were fixed with formaldehyde and then permeabilized by treating them with Triton X-100. The damage to DNA was estimated by studying the signal after hybridisation of the cells with an antibody against histone H2AX Ser139 and subsequent hybridisation with an antibody bound to fluorescein. The number of foci with stain for histone H2AX per nucleus was determined by confocal microscopy in a total of 200 cells and the data represented as a percentage of cells with a specific number of foci.
molecule,measurement,setting,value
GFINLDKPSNPKRKR (GSE4NLS1-3; listed as Homo sapiens),entry into cells,HeLa cells; peptide simply added to the culture medium,entered the cells
same,entry into cells,HeLa cells; transfected using Proteojuice reagent,entered the cells
GFINLDKPSNPSSHEVVAWIRRILRVEKTGHSGTLDPKVTGCLIVCIERATRLVKKRKR (GSE24.2NLS1-3; listed as Homo sapiens) [GSE24.2 with NLS1 in the 3′ position],activation of expression of the promoter of c-myc (luciferase),[1],more effectively than GSE24.2
"HSGTLDPKVTG (listed as Homo sapiens) [SGSE4, reference compound]",AT cells in which overall damage to DNA is corrected,[2],not able to correct the damage to DNA
B1,activation of expression of the promoter of c-myc (luciferase),[1],more effectively than GSE24.2
